Experimental data: patent publication US9192577B2, “Pharmaceutical compositions comprising a basic drug compound, a surfactant, and a physiologically tolerable water soluble acid” (Janssen Pharmaceutica NV, priority 2002, dated 2015)

Columns and labels:
HIV = assay: in vitro anti-HIV assay: inhibition of HIV-induced cytopathic effect in MT-4 cells (MTT); type: cell-based; conditions: for pSI: pSI = pCC50-pIC50 (selectivity index CC50/IC50); for IC50: Human immunodeficiency virus 1, MT4, −log IC50, 50% protection against HIV-induced cytopathic effect in MT-4 cells, MTT
Experimental: (§1) A rapid, sensitive and automated assay procedure was used for the in vitro evaluation of anti-HIV agents. […] Inhibition of the HIV-induced cytopathic effect was used as the end point. The viability of both HIV- and mock-infected cells was assessed spectrophotometrically via the in situ reduction of 3-(4,5-dimethylthiazol-2-yl)-2,5-diphenyltetrazolium bromide (MTT). The 50% cytotoxic concentration (CC50 in M) was defined as the concentration of compound that reduced the absorbance of the mock-infected control sample by 50%. The percent protection achieved by the compound in HIV-infected cells was calculated by the following formula:
(§2) [formula] whereby (ODT)HIV is the optical density measured with a given concentration of the test compound in HIV-infected cells; (ODC)HIV is the optical density measured for the control untreated HIV-infected cells; (ODC)MOCK is the optical density measured for the control untreated mock-infected cells; all optical density values were determined at 540 nm. The dose achieving 50% protection according to the above formula was defined as the 50% inhibitory concentration (IC50 in M). The ratio of CC50 to IC50 was defined as the selectivity index (SI).

[1] = cytotoxicity (CC50) in mock-infected MT-4 cells (MTT); type: cell-based; conditions: human, mock-infected MT-4 cells, −log CC50, MTT
Experimental: as §1, §2

[2] = effect of surfactant on solubility and stability of the supersaturated condition (0.01 N HCl, 37° C.); type: physicochemical
Experimental: Aqueous solutions of 2.5% (w/v) of hydroxypropyl-β-cyclodextrin (HPβCD), 2.5% (w/v) of Vit E TPGS [2], 2.5% (w/v) Cremophor RH 40 [3], 2.5% (w/v) of sodium lauryl sulfate or 2.5% (w/v) of PEG 4000 [5] in 0.01 N HCl at 37° C. were prepared.
To 10 ml of these solutions, with stirring, a concentrated solution of R278474 or R165335 in N,N-dimethylformamide (100 mg/ml) was added dropwise until precipitation of the drug compound was observed. After 5, 30, 60 and 120 minutes, the concentration of dissolved R278474 or R165335 expressed in mg % (i.e. the number of mg dissolved in 100 ml) was determined.

[3] = [1] 2.5% (w/v) HPβCD in 0.01 N HCl, 5 minutes
[4] = [1] 2.5% (w/v) HPβCD in 0.01 N HCl, 30 minutes
[5] = [1] 2.5% (w/v) HPβCD in 0.01 N HCl, 60 minutes
[6] = [1] 2.5% (w/v) HPβCD in 0.01 N HCl, 120 minutes
[7] = [5] 2.5% (w/v) PEG 4000 in 0.01 N HCl, 5 minutes
[8] = [5] 2.5% (w/v) PEG 4000 in 0.01 N HCl, 30 minutes
[9] = [5] 2.5% (w/v) PEG 4000 in 0.01 N HCl, 60 minutes
[10] = [5] 2.5% (w/v) PEG 4000 in 0.01 N HCl, 120 minutes

| Compound | melting point [°C] | pSI (HIV) | CC50 [1] [µM] | further results |
| --- | --- | --- | --- | --- |
| Cc1cc(/C=C\Cl)cc(C)c1Nc1ccnc(Nc2ccc(C#N)cc2)n1 | 250 | – | – | – |
| Cc1cc(C=C(Br)Br)cc(C)c1Nc1ccnc(Nc2ccc(C#N)cc2)n1 | 223 | – | – | – |
| CCCCN(C)C(=O)/C=C/c1cc(C)c(Oc2ccnc(Nc3ccc(C#N)cc3)n2)c(C)c1 | 212 | – | – | – |
| Cc1ccc(N(C)C)c(C)c1Nc1ccnc(Nc2ccc(C#N)cc2)n1 | 132 | – | – | – |
| Cc1cc(/C=C/c2cccnc2)cc(C)c1Nc1ccnc(Nc2ccc(C#N)cc2)n1 | 120 | – | – | – |
| Cc1cc(C(=O)CC#N)cc(C)c1Nc1ccnc(Nc2ccc(C#N)cc2)n1 | 150 | – | – | – |
| Cc1cc(-c2ccco2)cc(C)c1Nc1ccnc(Nc2ccc(C#N)cc2)n1 [Compound 3] | – | −2.9 | 3.16 | – |
| CO/N=C(\c1cc(C)c(Nc2ccnc(Nc3ccc(C#N)cc3)n2)c(C)c1)C(C)C [Compound 9] | – | −4 | 15.8 | – |
| C/C(C#N)=C/c1cc(C)c(Nc2ccnc(Nc3ccc(C#N)cc3)n2)c(C)c1 [Compound 11] | – | −3.5 | 2 | IC50 (HIV): 0.000631 µM |
| Cc1cc(C(O)CC#N)cc(C)c1Nc1ccnc(Nc2ccc(C#N)cc2)n1 (centres unmarked) [Compound 18] | – | −4.0 | 12.6 | – |
| Cc1cc(-c2ccsc2)cc(C)c1Nc1ccnc(Nc2ccc(C#N)cc2)n1 [Compound 21] | – | −3.5 | 12.6 | – |
| Cc1cc(CCC#N)cc(C)c1Nc1ccnc(Nc2ccc(C#N)cc2)n1 [Compound 24] | – | −3.4 | 2 | – |
| CC(=O)c1cccc(-c2cc(C)c(Nc3ccnc(Nc4ccc(C#N)cc4)n3)c(C)c2)c1 [Compound 34] | – | −3.2 | 15.8 | – |
| Cc1cc(/C=C(\C#N)c2cccs2)cc(C)c1Nc1ccnc(Nc2ccc(C#N)cc2)n1 [Compound 49] | – | −3.2 | 15.8 | – |
| Cc1cc(Cn2ccnc2)cc(C)c1Nc1ccnc(Nc2ccc(C#N)cc2)n1 [Compound 70] | – | −3.3 | 15.8 | – |
| Cc1cc(CN2CCSC2)cc(C)c1Nc1ccnc(Nc2ccc(C#N)cc2)n1 [Compound 78] | – | −3.5 | 12.6 | – |
| CCN(Cc1ccncc1)Cc1cc(C)c(Nc2ccnc(Nc3ccc(C#N)cc3)n2)c(C)c1 [Compound 79] | – | −2.7 | 5.01 | – |

| Compound | melting point [°C] | pSI (HIV) | CC50 [1] [µM] | further results |
| --- | --- | --- | --- | --- |
| CCOCc1ccc(Oc2ccnc(Nc3ccc(C#N)cc3)n2)c(C)c1 [Compound 105] | 140 | <−3.2 | > 100 | – |
| Cc1cc(/C=C(/C#N)C(=O)C(C)(C)C)cc(C)c1Nc1ccnc(Nc2ccc(C#N)cc2)n1 [Compound 106] | 193 | −2.5 | 6.31 | – |
| Cc1cc(/C=C(/F)C#N)cc(C)c1Nc1ccnc(Nc2ccc(C#N)cc2)n1 [Compound 110] | 254 | −4.3 | – | IC50 (HIV): 0.00251 µM |
| Cc1cc(/C=C/C(=O)N(C)C)cc(C)c1Nc1ccnc(Nc2ccc(C#N)cc2)n1 [Compound 112] | > 264 | −4.2 | 12.6 | – |
| Cc1cc(/C=C/C(=O)N(C)CCC#N)cc(C)c1Nc1ccnc(Nc2ccc(C#N)cc2)n1 [Compound 114] | 168 | −3.5 | 7.94 | – |
| Cc1cc(-n2cccc2)cc(C)c1Oc1ccnc(Nc2ccc(C#N)cc2)n1 [Compound 118] | – | <−4.1 | 79.4 | – |
| Cc1cc(/C(Cl)=C\C#N)cc(C)c1Nc1ccnc(Nc2ccc(C#N)cc2)n1 [Compound 124] | – | −3.8 | 20 | – |
| Cc1cc(-c2ccc(C#N)o2)cc(C)c1Nc1ccnc(Nc2ccc(C#N)cc2)n1 [Compound 126] | > 260 | −3.5 | 12.6 | – |
| Cc1cc(/C=C/c2cccnc2)cc(C)c1Nc1ccnc(Nc2ccc(C#N)cc2)n1 [Compound 145] | – | −3.4 | 5.01 | – |
| Cc1cc(/C=C/C(=O)N2CCN(C)CC2)cc(C)c1Nc1ccnc(Nc2ccc(C#N)cc2)n1 [Compound 155] | – | −2.5 | 0.501 | – |
| Cc1cc(/C=C/C(=O)N2CCOCC2)cc(C)c1Nc1ccnc(Nc2ccc(C#N)cc2)n1 [Compound 156] | – | −2.6 | 7.94 | – |
| Cc1cc(/C=C/C(=O)N2CC=CC2)cc(C)c1Oc1ccnc(Nc2ccc(C#N)cc2)n1 [Compound 209] | – | −3.7 | 12.6 | – |
| Cc1cc(/C=C/C(=O)N(C)C2CCN(C)CC2)cc(C)c1Oc1ccnc(Nc2ccc(C#N)cc2)n1 [Compound 210] | – | −3.5 | 15.8 | – |
| Cc1cc(/C=C/C(=O)N2CCOCC2)cc(C)c1Oc1ccnc(Nc2ccc(C#N)cc2)n1 [Compound 216] | – | −3.6 | 10 | – |
| Cc1cc(C#N)cc(C)c1Oc1nc(Nc2ccc(C#N)cc2)nc(N)c1Br [Compound R165335, 4-[[6-amino-5-bromo-2-[(4-cyanophenyl)amino]-4-pyrimidinyl]oxy]-3,5-dimethylbenzonitrile] | – | – | – | concentration of dissolved drug [2, 3]: 0.04 mg %; concentration of dissolved drug [2, 4]: 0.12 mg %; concentration of dissolved drug [2, 5]: 0.17 mg %; concentration of dissolved drug [2, 6]: 0.07 mg %; concentration of dissolved drug ([2]; [3] 2.5% (w/v) Cremophor RH 40 in 0.01 N HCl, 5 minutes): 54.20 mg %; concentration of dissolved drug ([2]; [3] 2.5% (w/v) Cremophor RH 40 in 0.01 N HCl, 30 minutes): 24.88 mg %; concentration of dissolved drug ([2]; [3] 2.5% (w/v) Cremophor RH 40 in 0.01 N HCl, 60 minutes): 20.06 mg %; concentration of dissolved drug ([2]; [3] 2.5% (w/v) Cremophor RH 40 in 0.01 N HCl, 120 minutes): 18.44 mg %; concentration of dissolved drug ([2]; [4] 2.5% (w/v) sodium lauryl sulfate in 0.01 N HCl, 5 minutes): 35.09 mg %; concentration of dissolved drug ([2]; [4] 2.5% (w/v) sodium lauryl sulfate in 0.01 N HCl, 30 minutes): 37.85 mg %; concentration of dissolved drug ([2]; [4] 2.5% (w/v) sodium lauryl sulfate in 0.01 N HCl, 60 minutes): 38.80 mg %; concentration of dissolved drug ([2]; [4] 2.5% (w/v) sodium lauryl sulfate in 0.01 N HCl, 120 minutes): 38.35 mg %; concentration of dissolved drug [2, 7]: 0.02 mg %; concentration of dissolved drug [2, 8]: 0.04 mg %; concentration of dissolved drug [2, 9]: 0.07 mg %; concentration of dissolved drug [2, 10]: 0.04 mg % |
| Cc1cc(C=CC#N)cc(C)c1Nc1ccnc(Nc2ccc(C#N)cc2)n1 [Compound R278474, 4-[[4-[[4-(2-cyanoethenyl)-2,6-dimethylphenyl]amino]-2-pyrimidinyl]amino]benzonitrile] | – | – | – | concentration of dissolved drug ([2]; 0.01N HCl, 5 minutes): 18.02 mg %; concentration of dissolved drug ([2]; 0.01N HCl, 30 minutes): 16.30 mg %; concentration of dissolved drug ([2]; 0.01N HCl, 60 minutes): 15.90 mg %; concentration of dissolved drug ([2]; 0.01N HCl, 120 minutes): 15.95 mg %; concentration of dissolved drug [2, 3]: 27.68 mg %; concentration of dissolved drug [2, 4]: 24.80 mg %; concentration of dissolved drug [2, 5]: 24.40 mg %; concentration of dissolved drug [2, 6]: 24.10 mg %; concentration of dissolved drug ([2]; [2] 2.5% (w/v) Vit E TPGS in 0.01 N HCl, 5 minutes): 91.75 mg %; concentration of dissolved drug ([2]; [2] 2.5% (w/v) Vit E TPGS in 0.01 N HCl, 30 minutes): 83.50 mg %; concentration of dissolved drug ([2]; [2] 2.5% (w/v) Vit E TPGS in 0.01 N HCl, 60 minutes): 76.25 mg %; concentration of dissolved drug ([2]; [2] 2.5% (w/v) Vit E TPGS in 0.01 N HCl, 120 minutes): 75.25 mg %; concentration of dissolved drug [2, 7]: 23.60 mg %; concentration of dissolved drug [2, 8]: 21.60 mg %; concentration of dissolved drug [2, 9]: 20.60 mg %; concentration of dissolved drug [2, 10]: 20.10 mg % |
